Measurements reported in US20220288040A1, “USE OF PYRVINIUM FOR THE TREATMENT OF A RAS PATHWAY MUTATED ACUTE MYELOID LEUKEMIA” (INSERM (INSTITUT NATIONAL DE LA SANTÉ ET DE LA RECHERCHE …, priority 2019, published 2022).

Key:
NRAS^G12A-mutated AML = assay type: in vivo; conditions: person, trametinib 2 mg/d, hydroxycarbamide 2000 mg daily
[1] = system: RAS pathway activated TF-1, Ba/F3 and UT-7 cells; test: Trametinib dose-range cytotoxicity in RAS pathway activated cell lines; assay type: cell-based, human; murine; conditions: three fold-dilutions dose-range
Description: UptiBlue: Cells were seeded in 100 μl of culture medium for 48 hours. […] The UptiBlue viable cell-counting reagent (Interchim, Montluçon, France) was then added for 4 hours and fluorescence was measured with a Typhoon 8600 scanner (GE Healthcare BioSciences, Buc, France).

Row | Compound | white blood cell count / leukocytosis (NRAS^G12A-mutated AML; second course) | toxicity in patient (NRAS^G12A-mutated AML) | cytotoxicity in RAS activated cells compared to isogenic control cells [1]
1 | NC(=O)NO [hydroxycarbamide] | limited efficacy | hematological toxicity | 
2 | CC(=O)Nc1cccc(-n2c(=O)n(C3CC3)c(=O)c3c(Nc4ccc(I)cc4F)n(C)c(=O)c(C)c32)c1 [trametinib] |  | neurological toxicity | marked enhancement of trametinib cytotoxicity
